“And” between values parts separate entries of the source, which are not always exact repeats. Equal values may be shown once.
Experiments:
whole blood cultures = format: cell-based, human
T cells = format: cell-based, human

tetanus toxoid [TeTo] was tested, and the IL-10 (whole blood cultures) was 8.47 pg/mL and 8.24 pg/mL, the IL-2 (T cells) was 12.1 pg/mL and the “IL-2 Conc” value (T cells) was 12.1 pg/mL. For the same substance, the “IL-2 SI (stimulation index)” value (T cells) was 314.

Source: patent US20230018737A1, “AN IN VITRO KIT AND A METHOD FOR D[…] TRANSPLANTS AND/OR AUTOIMMUNE DISEASES AND/OR TUMOR DISEASES AND/OR VA[…] A MESSENGER-SUBSTANCE-CONTAINING SUPERNATANT, CELL-[…], AND A COMBINATION, FOR USE IN D[…] TRANSPLANTS AND/OR AUTOIMMUNE DISEASES AND/OR TUMOR DISEASES AND/OR VACCINATIONS” (HOT Screen GmbH, priority 2019, published 2023)
